Data published in US6277847A, “Herbicidal isoindolinonyl-and 3,4-dihydroisoquinolonyl-substituted heterocycles” (FMC Corporation, priority 2000, dated 2001).

Tests used:
Assay type in all cases: in vivo
[1] = test system: soybean (Glycine max -- var. Winchester); assay: pre-emergence herbicidal activity, soybean; details: 1 kg/Ha, about fourteen days, read-out: pre-emergence herbicidal activity (% control) SOY
Description: (§1) This example sets forth the methods of herbicidal testing conducted on the specific compounds set forth below. Specifically, the compounds referenced below were tested for pre- and post-emergence herbicidal activity using a variety of crops and weeds. The test plants include, but are not limited to, soybean (Glycine max -- var. Winchester), field corn (Zea mays var. Pioneer 3732), wheat (Triticum aestivum var. Lew), morningglory (Ipomea lacunosa or Ipomea hederacea), velvetleaf (Abutilon theophrasti), green foxtail (Setaria viridis), Johnsongrass (Sorghum halepense), blackgrass (Aloepecurus myosuroides), common chickweed (Stellaria media), and common cocklebur (Xanthium strumarium L.).
(§2) In the post-emergence test, seeds of the plant species named above were planted in flats containing the appropriate soil mixture where they were maintained to allow the seeds to germinate. When the plants in these flats reached the proper stage of growth, flats for the pre-emergence tests were planted in a like manner. The flats containing the post-emergence and pre-emergence test plant species were then sprayed with an appropriately concentrated water/acetone solution of test compound. Once treated the flats were maintained, along with untreated controls, for about fourteen days. All treated plants were then examined for phytotoxicity, which was expressed as percent control where 0 is no effect and 100 is complete control. Effective rates of application for the compounds of the present invention range from 0.001 to 3 kg/ha, more likely from […] to 1 Kg/ha.
(§3) Herbicidal activity data at selected application rates are in Tables 4 and 5. The test compounds are identified by numbers correspond to those in Table 1.
(§4) Rate of application of test compound is 1 kg/Ha
(§5) SOY is soybean, WHT is wheat, CRN is corn, ABUTH is velvetleaf, IPOSS is
(§6) morningglory, STEME is chickweed, XANPE is cocklebur, ALOMY is blackgrass, […]

[2] = test system: wheat (Triticum aestivum var. Lew); assay: pre-emergence herbicidal activity, wheat; details: 1 kg/Ha, about fourteen days, read-out: pre-emergence herbicidal activity (% control) WHT
Description: as §1, §2, §3, §4, §5, §6

[3] = test system: field corn (Zea mays var. Pioneer 3732); assay: pre-emergence herbicidal activity, corn; details: 1 kg/Ha, about fourteen days, read-out: pre-emergence herbicidal activity (% control) CRN
Description: as §1, §2, §3, §4, §5, §6

[4] = test system: velvetleaf (Abutilon theophrasti); assay: pre-emergence herbicidal activity, velvetleaf; details: 1 kg/Ha, about fourteen days, read-out: pre-emergence herbicidal activity (% control) ABUTH
Description: as §1, §2, §3, §4, §5, §6

[5] = test system: morningglory (Ipomea lacunosa or Ipomea hederacea); assay: pre-emergence herbicidal activity, morningglory; details: Ipomoea, 1 kg/Ha, about fourteen days, read-out: pre-emergence herbicidal activity (% control) IPOSS
Description: as §1, §2, §3, §4, §5, §6

[6] = test system: common chickweed (Stellaria media); assay: pre-emergence herbicidal activity, chickweed; details: 1 kg/Ha, about fourteen days, read-out: pre-emergence herbicidal activity (% control) STEME
Description: as §1, §2, §3, §4, §5, §6

[7] = test system: common cocklebur (Xanthium strumarium L.); assay: pre-emergence herbicidal activity, cocklebur; details: 1 kg/Ha, about fourteen days, read-out: pre-emergence herbicidal activity (% control) XANPE
Description: as §1, §2, §3, §4, §5, §6

[8] = test system: green foxtail (Setaria viridis); assay: pre-emergence herbicidal activity, green foxtail; details: 1 kg/Ha, about fourteen days, read-out: pre-emergence herbicidal activity (% control) SETVI
Description: as §1, §2, §3, §4, §5, §6

[9] = test system: Johnsongrass (Sorghum halepense); assay: pre-emergence herbicidal activity, johnsongrass; details: 1 kg/Ha, about fourteen days, read-out: pre-emergence herbicidal activity (% control) SORHA
Description: as §1, §2, §3, §4, §5, §6

[10] = test system: soybean (Glycine max -- var. Winchester); assay: post-emergence herbicidal activity, soybean; details: 1 Kg/Ha, about fourteen days, read-out: post-emergence herbicidal activity (% control) SOY
Description: as §1, §2, §3, §5
(§7) morningglory, STEME is chickweed, XANPE is cocklebur, ALOMY is blackgrass,
(§8) Rate of application of test compound is 1 Kg/Ha. The definitions as shown under Table 4 apply to Table 5.

[11] = test system: wheat (Triticum aestivum var. Lew); assay: post-emergence herbicidal activity, wheat; details: 1 Kg/Ha, about fourteen days, read-out: post-emergence herbicidal activity (% control) WHT
Description: as §1, §2, §3, §5, §7, §8

[12] = test system: field corn (Zea mays var. Pioneer 3732); assay: post-emergence herbicidal activity, corn; details: 1 Kg/Ha, about fourteen days, read-out: post-emergence herbicidal activity (% control) CRN
Description: as §1, §2, §3, §5, §7, §8

[13] = test system: velvetleaf (Abutilon theophrasti); assay: post-emergence herbicidal activity, velvetleaf; details: 1 Kg/Ha, about fourteen days, read-out: post-emergence herbicidal activity (% control) ABUTH
Description: as §1, §2, §3, §5, §7, §8

[14] = test system: morningglory (Ipomea lacunosa or Ipomea hederacea); assay: post-emergence herbicidal activity, morningglory; details: Ipomoea, 1 Kg/Ha, about fourteen days, read-out: post-emergence herbicidal activity (% control) IPOSS
Description: as §1, §2, §3, §5, §7, §8

[15] = test system: common cocklebur (Xanthium strumarium L.); assay: post-emergence herbicidal activity, cocklebur; details: 1 Kg/Ha, about fourteen days, read-out: post-emergence herbicidal activity (% control) XANPE
Description: as §1, §2, §3, §5, §7, §8

[16] = test system: green foxtail (Setaria viridis); assay: post-emergence herbicidal activity, green foxtail; details: 1 Kg/Ha, about fourteen days, read-out: post-emergence herbicidal activity (% control) SETVI
Description: as §1, §2, §3, §5, §7, §8

[17] = test system: Johnsongrass (Sorghum halepense); assay: post-emergence herbicidal activity, johnsongrass; details: 1 Kg/Ha, about fourteen days, read-out: post-emergence herbicidal activity (% control) SORHA
Description: as §1, §2, §3, §5, §7, §8

[18] = test system: blackgrass (Aloepecurus myosuroides); assay: pre-emergence herbicidal activity, blackgrass; details: Alopecurus myosuroides, 1 kg/Ha, about fourteen days, read-out: pre-emergence herbicidal activity (% control) ALOMY
Description: as §1, §2, §3, §4, §5, §6

[19] = test system: common chickweed (Stellaria media); assay: post-emergence herbicidal activity, chickweed; details: 1 Kg/Ha, about fourteen days, read-out: post-emergence herbicidal activity (% control) STEME
Description: as §1, §2, §3, §5, §7, §8

| Compound | activity at 1000 g/ha [1] [%] | activity at 1000 g/ha [2] [%] | activity at 1000 g/ha [3] [%] | activity at 1000 g/ha [4] [%] | activity at 1000 g/ha [5] [%] | activity at 1000 g/ha [6] [%] | activity at 1000 g/ha [7] [%] | activity at 1000 g/ha [8] [%] | activity at 1000 g/ha [9] [%] | activity at 1000 g/ha [10] [%] | activity at 1000 g/ha [11] [%] | activity at 1000 g/ha [12] [%] | activity at 1000 g/ha [13] [%] | activity at 1000 g/ha [14] [%] | activity at 1000 g/ha [15] [%] | activity at 1000 g/ha [16] [%] | activity at 1000 g/ha [17] [%] | activity at 1000 g/ha [18] [%] | activity at 1000 g/ha [19] [%] |
| --- | --- | --- | --- | --- | --- | --- | --- | --- | --- | --- | --- | --- | --- | --- | --- | --- | --- | --- | --- |
| C=CCON1Cc2c(-n3c(=O)cc(C(F)(F)F)n(C)c3=O)ccc(Cl)c2C1=O [Compound 17] | 100 | 100 | 100 | 100 | 100 | 100 | 100 | 100 | 100 | 100 | 100 | 90 | 100 | 90 | 100 | 100 | 100 | – | – |
| Cn1c(C(F)(F)F)cc(=O)n(-c2ccc(Cl)c3c2CN(O)C3=O)c1=O [Compound 18] | 95 | 60 | 100 | 100 | 100 | – | 100 | 100 | 100 | 80 | 50 | 70 | 100 | 100 | 95 | 70 | 65 | – | – |
| COc1ccc(CN2Cc3c(-n4c(=O)cc(C(F)(F)F)n(C)c4=O)ccc(Cl)c3C2=O)cc1 [Compound 25] | 50 | 60 | 95 | 100 | 70 | 100 | 40 | 100 | – | 80 | 40 | 90 | 100 | 90 | 60 | 100 | 75 | 75 | 80 |
| COC(=O)CCN1Cc2c(-n3c(=O)cc(C(F)(F)F)n(C)c3=O)ccc(Cl)c2C1=O [Compound 26] | 100 | 50 | 80 | 100 | 80 | 100 | 100 | 80 | – | 100 | 70 | 95 | 100 | 80 | 100 | 100 | 80 | 80 | 100 |
| Cn1c(C(F)(F)F)cc(=O)n(-c2ccc(Cl)c3c2CN(CC(F)(F)F)C3=O)c1=O [Compound 28] | 100 | 100 | 100 | 100 | 100 | 100 | 100 | 100 | – | 100 | 100 | 100 | 100 | 100 | 100 | 100 | 100 | 100 | 100 |
| Cn1c(C(F)(F)F)cc(=O)n(-c2ccc(Cl)c3c2CN(CC2CC2)C3=O)c1=O [Compound 29] | 100 | 100 | 100 | 100 | 100 | 100 | 100 | 100 | – | 100 | 100 | 100 | 100 | 100 | 100 | 100 | 100 | 100 | 100 |
| Cn1c(C(F)(F)F)cc(=O)n(-c2ccc(Cl)c3c2CN(CC#N)C3=O)c1=O [Compound 30] | 100 | 100 | 100 | 100 | 100 | 100 | 100 | 100 | – | 100 | 60 | 95 | 100 | 100 | 100 | 100 | 100 | 100 | 100 |
| COCN1Cc2c(-n3c(=O)cc(C(F)(F)F)n(C)c3=O)ccc(Cl)c2C1=O [Compound 31] | 100 | 100 | 100 | 100 | 100 | 100 | 100 | 100 | – | 100 | 100 | 100 | 100 | 100 | 100 | 100 | 100 | 100 | 100 |
| CC(C)N1Cc2c(-n3c(=O)cc(C(F)(F)F)n(N)c3=O)ccc(Cl)c2C1=O [Compound 70] | 100 | 100 | 100 | 100 | 100 | 100 | 100 | 100 | – | 100 | 100 | 100 | 100 | 100 | 100 | 100 | 100 | 100 | 100 |
